Test results: US12448394B2, “Heterocyclic pyrazole derivatives as type III receptor tyrosine kinase inhibitors” (DEVELOPMENT CENTER FOR BIOTECHNOLOGY, priority 2019, dated 2025)

Tests used:
Type in all cases: biochemical
[1] = target: T1, MET kinase (Homo sapiens, UniProt P08581); experiment: MET kinase assay (AlphaScreen, counter screen); details: read-out: Ranking of IC50 values, MET
T1 construct: purchased SignalChem
Description: Because MET kinase belonged to Class VIII RTK family have one transmembrane a chain linked with one extracellular β chain which is different form Class III RTK family with 5 Immunoglobin-like extracellular domains. Standard assay conditions were 1 ng of recombinant MET kinase (SignalChem) with 3 ng Biotin-conjugated Poly-(Glu 4: Tyr 1) (Cisbio) in the assay buffer ([…], 10 mM MOPs, pH 7.0, 0.21 mM EDTA, 0.5% glycerol, 1 mg/mL BSA, 0.01% 2-mercaptoethanol, 0.001% Brij35, 10 mM MgCl2) in a final volume of 25 μL. Reactions were incubated at 30° C. for 45 min and stopped by adding 5 μL of 50 mM EDTA. Analysis of resulting product using an AlphaScreen kit and counted with Enspire Alpha (PerkinElmer). […] The IC50 values of inhibitors were determined after carrying out assays with each compound at serially diluted concentrations in duplication. The results were analyzed using linear regression software (GraphPad Prism 5; GraphPad Software Inc.)

[2] = target: T2, FLT3 kinase (Homo sapiens, UniProt P36888); experiment: FLT3 kinase assay (AlphaScreen); details: read-out: Ranking of IC50 values, FLT3
T2 construct: purchased SignalChem
T2 sequence (P36888 27-993): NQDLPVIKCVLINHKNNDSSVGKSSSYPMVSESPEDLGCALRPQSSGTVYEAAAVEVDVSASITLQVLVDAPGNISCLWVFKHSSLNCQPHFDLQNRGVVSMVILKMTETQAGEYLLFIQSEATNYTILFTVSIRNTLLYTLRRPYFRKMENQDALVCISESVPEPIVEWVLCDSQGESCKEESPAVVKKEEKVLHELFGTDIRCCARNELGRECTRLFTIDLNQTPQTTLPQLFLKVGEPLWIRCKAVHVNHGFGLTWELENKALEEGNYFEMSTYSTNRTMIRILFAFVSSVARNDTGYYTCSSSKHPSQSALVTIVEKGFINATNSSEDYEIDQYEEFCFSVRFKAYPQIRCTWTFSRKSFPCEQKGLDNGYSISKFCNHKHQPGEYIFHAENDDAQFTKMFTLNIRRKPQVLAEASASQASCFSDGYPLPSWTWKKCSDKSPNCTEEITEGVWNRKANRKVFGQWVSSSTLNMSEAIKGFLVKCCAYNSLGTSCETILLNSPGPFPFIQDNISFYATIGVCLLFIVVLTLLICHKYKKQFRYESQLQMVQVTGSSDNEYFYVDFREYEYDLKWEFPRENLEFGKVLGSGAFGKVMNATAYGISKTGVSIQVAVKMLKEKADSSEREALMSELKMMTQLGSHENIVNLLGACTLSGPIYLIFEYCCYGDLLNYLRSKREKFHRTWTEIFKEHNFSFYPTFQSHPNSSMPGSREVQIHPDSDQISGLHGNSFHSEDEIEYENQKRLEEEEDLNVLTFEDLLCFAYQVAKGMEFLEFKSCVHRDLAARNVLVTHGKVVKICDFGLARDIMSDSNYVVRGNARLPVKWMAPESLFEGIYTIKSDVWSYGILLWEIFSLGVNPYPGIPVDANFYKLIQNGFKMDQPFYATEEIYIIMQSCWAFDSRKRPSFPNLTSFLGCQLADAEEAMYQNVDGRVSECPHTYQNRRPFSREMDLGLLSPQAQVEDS
Description: Inhibition of FLT3 kinase activity by a test compound disclosed herein was estimated by AlphaScreen (PerkinElmer, […]). Standard assay conditions were 1.5 ng of recombinant FLT3 kinase (SignalChem, Richmond, BC, Canada) with 6 ng Biotin-conjugated Poly-(Glu 4: Tyr 1) (Cisbio, Bedford, MA, USA) in the assay buffer (10 μM ATP, 10 mM MOPs, pH7.0, 0.21 mM EDTA, 0.5% glycerol, 1 mg/mL BSA, 0.01% 2-mercaptoethanol, 0.001% Brij35, 10 mM MgCl2) in a final volume of 25 μL. Reactions were incubated at 30° C. for 30 min and stopped by adding 5 μL of 50 mM EDTA. Analysis of resulting product using an AlphaScreen kit and counted with Enspire Alpha (PerkinElmer, Waltham, MA, USA). […] The IC50 values of inhibitors were determined after carrying out assays with each compound at serially diluted concentrations in duplication. The results were analyzed using linear regression software (GraphPad Prism 5; GraphPad Software Inc.)

[3] = target: T3, PDGFRα kinase (Homo sapiens, UniProt P16234); experiment: PDGFRα kinase assay (AlphaScreen); details: read-out: Ranking of IC50 values, PDGFRα
T3 construct: purchased SignalChem
Description: Inhibition of PDGFRα kinase activity by a test compound disclosed herein was estimated by AlphaScreen (PerkinElmer). Standard assay conditions were 1.5 ng of recombinant PDGFRα kinase (SignalChem) with 6 ng Biotin-conjugated Poly-(Glu 4: Tyr 1) (Cisbio) in the assay buffer (10 μM ATP, 10 mM MOPs, pH 7.0, 0.21 mM EDTA, 0.5% glycerol, 1 mg/mL BSA, 0.01% 2-mercaptoethanol, 0.001% Brij35, 10 mM MgCl2) in a final volume of 25 μL. Reactions were incubated at 30° C. for 30 min and stopped by adding […] of 50 mM EDTA. Analysis of resulting product using an AlphaScreen kit and counted with Enspire Alpha (PerkinElmer). […] The IC50 values of inhibitors were determined after carrying out assays with each compound at serially diluted concentrations in duplication. The results were analyzed using linear regression software (GraphPad Prism 5; GraphPad Software Inc.)

T3 sequence (P16234 24-1089): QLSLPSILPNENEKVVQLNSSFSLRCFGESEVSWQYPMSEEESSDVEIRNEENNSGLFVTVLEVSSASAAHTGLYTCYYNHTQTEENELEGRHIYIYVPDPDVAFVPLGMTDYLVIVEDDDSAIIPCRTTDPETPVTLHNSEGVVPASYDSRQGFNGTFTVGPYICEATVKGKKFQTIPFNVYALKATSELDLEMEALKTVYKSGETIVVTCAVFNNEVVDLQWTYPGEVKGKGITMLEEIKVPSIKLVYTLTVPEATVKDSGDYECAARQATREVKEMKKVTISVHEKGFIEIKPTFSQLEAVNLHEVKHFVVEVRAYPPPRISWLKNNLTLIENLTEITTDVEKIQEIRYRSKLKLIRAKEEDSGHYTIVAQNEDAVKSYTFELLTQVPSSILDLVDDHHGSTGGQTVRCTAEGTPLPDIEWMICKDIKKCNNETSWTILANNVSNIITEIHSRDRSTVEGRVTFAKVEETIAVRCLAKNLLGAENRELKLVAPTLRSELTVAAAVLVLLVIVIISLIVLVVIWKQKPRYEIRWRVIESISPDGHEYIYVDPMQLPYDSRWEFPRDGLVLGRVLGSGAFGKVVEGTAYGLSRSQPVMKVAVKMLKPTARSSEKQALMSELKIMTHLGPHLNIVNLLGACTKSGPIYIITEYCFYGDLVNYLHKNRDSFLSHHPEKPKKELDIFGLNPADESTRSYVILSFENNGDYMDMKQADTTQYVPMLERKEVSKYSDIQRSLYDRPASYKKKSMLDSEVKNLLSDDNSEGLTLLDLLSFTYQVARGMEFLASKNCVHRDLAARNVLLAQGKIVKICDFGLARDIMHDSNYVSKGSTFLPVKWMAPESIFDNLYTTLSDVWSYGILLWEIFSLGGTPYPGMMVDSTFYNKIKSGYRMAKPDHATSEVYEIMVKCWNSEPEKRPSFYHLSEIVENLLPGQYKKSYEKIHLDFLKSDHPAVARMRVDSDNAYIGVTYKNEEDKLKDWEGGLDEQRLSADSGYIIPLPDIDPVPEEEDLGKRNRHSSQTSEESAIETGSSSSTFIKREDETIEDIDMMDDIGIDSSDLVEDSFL
T1 sequence (P08581 25-1390): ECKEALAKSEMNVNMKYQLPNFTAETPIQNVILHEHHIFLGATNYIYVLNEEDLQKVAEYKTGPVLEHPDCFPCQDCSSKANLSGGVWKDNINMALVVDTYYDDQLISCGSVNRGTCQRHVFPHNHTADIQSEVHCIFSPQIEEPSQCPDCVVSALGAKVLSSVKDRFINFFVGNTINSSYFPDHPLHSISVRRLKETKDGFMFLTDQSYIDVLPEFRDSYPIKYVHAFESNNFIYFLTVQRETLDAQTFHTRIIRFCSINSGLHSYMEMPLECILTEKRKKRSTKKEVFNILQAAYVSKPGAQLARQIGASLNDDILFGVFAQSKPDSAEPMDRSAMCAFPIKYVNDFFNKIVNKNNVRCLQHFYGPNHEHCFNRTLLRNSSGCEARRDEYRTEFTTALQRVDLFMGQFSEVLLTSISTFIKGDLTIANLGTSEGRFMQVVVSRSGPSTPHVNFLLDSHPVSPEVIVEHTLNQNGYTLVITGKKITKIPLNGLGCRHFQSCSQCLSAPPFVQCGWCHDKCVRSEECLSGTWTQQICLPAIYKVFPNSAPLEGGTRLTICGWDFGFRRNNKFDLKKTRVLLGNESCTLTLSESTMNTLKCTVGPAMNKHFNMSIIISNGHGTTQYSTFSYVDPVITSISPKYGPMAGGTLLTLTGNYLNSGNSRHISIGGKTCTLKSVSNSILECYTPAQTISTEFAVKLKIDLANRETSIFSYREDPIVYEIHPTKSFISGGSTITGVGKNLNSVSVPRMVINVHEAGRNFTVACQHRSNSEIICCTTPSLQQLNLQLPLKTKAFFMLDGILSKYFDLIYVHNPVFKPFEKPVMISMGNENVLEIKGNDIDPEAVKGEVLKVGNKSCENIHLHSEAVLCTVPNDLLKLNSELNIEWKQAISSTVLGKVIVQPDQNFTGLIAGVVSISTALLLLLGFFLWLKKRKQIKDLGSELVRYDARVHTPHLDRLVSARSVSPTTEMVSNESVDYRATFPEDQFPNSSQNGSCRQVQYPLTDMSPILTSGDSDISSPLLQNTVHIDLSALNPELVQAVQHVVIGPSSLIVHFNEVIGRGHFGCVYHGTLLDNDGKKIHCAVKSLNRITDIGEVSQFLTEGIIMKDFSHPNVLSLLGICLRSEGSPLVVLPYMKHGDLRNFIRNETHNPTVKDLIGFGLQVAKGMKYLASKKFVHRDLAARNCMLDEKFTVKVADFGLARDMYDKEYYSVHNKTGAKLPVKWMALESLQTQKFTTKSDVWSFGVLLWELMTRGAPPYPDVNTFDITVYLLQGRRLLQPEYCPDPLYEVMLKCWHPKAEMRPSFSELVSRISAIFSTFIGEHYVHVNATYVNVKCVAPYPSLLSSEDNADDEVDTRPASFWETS

| IC50 [1] | IC50 [2] | IC50 [3] | SMILES |
| --- | --- | --- | --- |
| > 1000 nM | < 1 nM | 10 to 30 nM | CN(C)S(=O)(=O)c1ccc(-c2cc3c(s2)Cc2c(-c4ccc5cnn(C)c5c4)n[nH]c2-3)cc1 [Compound 50, N,N-dimethyl-4-(3-(1-methyl-1H-indazol-6-yl)-1,4-dihydrothieno [2′,3′:4,5]cyclopenta [1,2-c]pyrazol-6-yl) benzenesulfonamide] |
| > 1000 nM | < 1 nM | 1 to 10 nM | Cn1ncc2ccc(-c3n[nH]c4c3Cc3sc(-c5ccc(CN6CCCC6)cc5)cc3-4)cc21 [Compound 99, 3-(1-methyl-1H-indazol-6-yl)-6-(4-(pyrrolidin-1-ylmethyl)phenyl)-1,4-dihydrothieno[2′,3′:4,5] cyclopenta[1,2-c]pyrazole] |
| > 1000 nM | < 1 nM | 1 to 10 nM | Cn1ncc2ccc(-c3n[nH]c4c3Cc3sc(-c5csc(C(=O)N6CCOCC6)c5)cc3-4)cc21 [Compound 48, (4-(3-(1-methyl-1H-indazol-6-yl)-1,4-dihydro-thieno[2′,3′:4,5]cyclopenta [1,2-c]pyrazol-6-yl)thiophen-2-yl) (morpholino)methanone] |
| 100 to 300 nM | < 1 nM | 1 to 10 nM | Cn1ncc2ccc(-c3n[nH]c4c3Cc3sc(-c5ccc(CN6CCCCC6)cc5)cc3-4)cc21 [Compound 100, 3-(1-methyl-1H-indazol-6-yl)-6-(4-(piperidin-1-ylmethyl)phenyl)-1,4-dihydrothieno[2′,3′:4,5] cyclopenta[1,2-c]pyrazole] |
| > 1000 nM | 1 to 10 nM | 30 to 100 nM | Cn1ncc2ccc(-c3n[nH]c4c3Cc3sc(-c5ccc(CN6CC(F)(F)C6)cc5)cc3-4)cc21 [Compound 104, 6-(4-((3,3-difluoroazeti-din-1-yl)methyl)phenyl)-3-(1-methyl-1H-indazol-6-yl)-1,4-dihydrothieno [2′,3′:4,5]cyclopenta [1,2-c]pyrazole] |
| > 1000 nM | < 1 nM | 10 to 30 nM | Cn1ncc2ccc(-c3n[nH]c4c3Cc3sc(C5=CCN(C(=O)N6CCOCC6)CC5)cc3-4)cc21 [Compound 57, (4-(3-(1-methyl-1H-indazol-6-yl)-1,4-dihydro-thieno[2′,3′:4,5]cyclopenta [1,2-c]pyrazol-6-yl)-3,6-dihydropyridin-1(2H)-yl) (morpholino)methanone] |
| > 1000 nM | 1 to 10 nM | 10 to 30 nM | Cn1ncc2ccc(-c3n[nH]c4c3Cc3sc(-c5cccc(OCCN6CCOCC6)c5)cc3-4)cc21 [Compound 70, 4-(2-(3-(3-(1-methyl-1H-indazol-6-yl)-1,4-dihydro-thieno[2′,3′:4,5]cyclopenta [1,2-c]pyrazol-6-yl)phenoxy)ethyl)morpholine] |
| > 1000 nM | < 1 nM | 1 to 10 nM | C[C@@H]1CN(Cc2ccc(-c3cc4c(s3)Cc3c(-c5ccc6cnn(C)c6c5)n[nH]c3-4)cc2)C[C@H](C)O1 [Compound 54, (2S,6R)-2,6-dimethyl-4-(4-(3-(1-methyl-1H-indazol-6-yl)-1,4-dihydro-thieno[2′,3′:4,5]cyclopenta [1,2-c]pyrazol-6-yl)benzyl)morpholine] |
| > 1000 nM | < 1 nM | 10 to 30 nM | Cn1ncc2ccc(-c3n[nH]c4c3Cc3sc(-c5ccc(OCCN6CCOCC6)cc5)cc3-4)cc21 [Compound 69, 4-(2-(4-(3-(1-methyl-1H-indazol-6-yl)-1,4-dihydro-thieno[2′,3′:4,5]cyclopenta [1,2-c]pyrazol-6-yl)phenoxy)ethyl)morpholine] |

The remaining lines, values behind:

| SMILES | IC50 [1] | IC50 [2] | IC50 [3] |
| --- | --- | --- | --- |
| C[C@@H]1CN(C(=O)c2ccc(-c3cc4c(s3)Cc3c(-c5ccc6cnn(C)c6c5)n[nH]c3-4)cc2)C[C@H](C)O1 [Compound 19, ((2S,6R)-2,6-dimethyl-morpholino)(4-(3-(1-methyl-1H-indazol-6-yl)-1,4-dihydrothieno[2′,3′:4,5]cyclopenta[1,2-c]pyrazol-6-yl)phenyl)methanone] | > 1000 nM | 1 to 10 nM | 1 to 10 nM |
| CC(c1ccc(-c2cc3c(s2)Cc2c(-c4ccc5cnn(C)c5c4)n[nH]c2-3)cc1)N1CCOCC1 (stereo not drawn) [Compound 20, 4-(1-(4-(3-(1-methyl-1H-indazol-6-yl)-1,4-dihydro-thieno[2′,3′:4,5]cyclopenta [1,2-c]pyrazol-6-yl)phenyl)ethyl)morpholine] | > 1000 nM | 1 to 10 nM | 1 to 10 nM |
| Cn1ncc2ccc(-c3n[nH]c4c3Cc3sc(-c5cccc(CN6CCOCC6)c5)cc3-4)cc21 [Compound 13, 4-(3-(3-(1-methyl-1H-indazol-6-yl)-1,4-dihydro-thieno[2′,3′:4,5]cyclopenta [1,2-c]pyrazol-6-yl)benzyl) morpholine] | > 1000 nM | 1 to 10 nM | 10 to 30 nM |
| CN1CCN(C(=O)c2ccc(-c3cc4c(s3)Cc3c(-c5ccc6cnn(C)c6c5)n[nH]c3-4)cc2)CC1 [Compound 15, (4-(3-(1-methyl-1H-indazol-6-yl)-1,4-dihydrothieno[2′,3′:4,5]cyclopenta[1,2-c]pyrazol-6-yl)phenyl)(4-methyl-piperazin-1-yl)methanone] | > 1000 nM | < 1 nM | 1 to 10 nM |
| c1cc(CN2CCOCC2)ncc1-c1cc2c(s1)Cc1c(-c3ccc4cn[nH]c4c3)n[nH]c1-2 [Compound 18, 4-((5-(3-(1H-indazol-6-yl)-1,4-dihydrothieno[2′,3′:4,5]cyclopenta[1,2-c]pyrazol-6-yl)pyridin-2-yl)methyl) morpholine] | > 1000 nM | < 1 nM | 1 to 10 nM |
| Cn1ncc2ccc(-c3n[nH]c4c3Cc3sc(-c5cccc(C(=O)N6CCOCC6)c5)cc3-4)cc21 [Compound 37, (3-(3-(1-methyl-1H-indazol-6-yl)-1,4-dihydro-thieno[2′,3′:4,5]cyclopenta [1,2-c]pyrazol-6-yl)phenyl)(morpholino) methanone] | > 1000 nM | 1 to 10 nM | 1 to 10 nM |
| COc1cc(CN2CCOCC2)ccc1-c1cc2c(s1)Cc1c(-c3ccc4cnn(C)c4c3)n[nH]c1-2 [Compound 29, 4-(3-methoxy-4-(3-(1-methyl-1H-indazol-6-yl)-1,4-dihydrothieno [2′,3′:4,5]cyclopenta[1,2-c]pyrazol-6-yl)benzyl) morpholine] | > 1000 nM | < 1 nM | 10 to 30 nM |
